From patent US20220117938A1, “COMBINATON THERAPY WITH A DON PRODRUG AND AN IMMUNE CHECKPOINT INHIBITOR” (DRACEN PHARMACEUTICALS, INC., priority 2019, published 2022)

Tested on: MC-38 tumors
Experiment: Anti-tumor efficacy of Compound 1 in the subcutaneous MC-38 model: schedule comparison (Example 3)
Type: in vivo, Mus musculus
Conditions: for MST: endpoint tumor volume 2000 mm^3
Procedure: Female C57BL/6 mice were inoculated subcutaneously at right flank with MC-38 cells for tumor development. Six days after tumor inoculation, 64 mice with tumor size ranging from 50-100 mm^3 (average tumor size 71 mm^3) were selected and assigned into 8 groups using stratified randomization with 8 mice per group based upon their tumor volumes. The treatments were started from the day of randomization (defined as D0), Group 1 was treated with Vehicle (Tween 80:Ethanol:Saline—5:5:90 v/v/v), S.C. QD*20 days, Group 2 was treated with Compound 1 at 1 mpk S.C. QD*28 days, Group 3 was treated with Compound 1 at 0.5 mpk S.C. QD*28 days, Group 4 was treated with Compound 1 at 1.4 mpk S.C. 5-days ON 2-days OFF×4 cycles, Group 5 was treated with Compound 1 at 0.7 mpk S.C. 5-days ON 2-days OFF×4 cycles, Group 6 was treated with Compound 1 at 3 mpk qd×5, followed by 1 mpk qd×23, S.C. QD, Group 7 was treated with Compound 1 at 1.5 mpk qd×5, followed by 0.5 mpk qd×23, S.C. QD and Group 8 was treated with Compound 1 at 1.4 mpk 10-days ON 4-days OFF×2 cycles, S.C.
Species: Mus musculus; Strain: C57BL/6; Age: 6-8 weeks; Sex: female; Body weight (at treatment start): 16-20 g.
The MC-38 tumor cells were maintained in vitro as a monolayer culture in DMEM medium supplemented with 10% heat inactivated fetal bovine serum and 100 μg/mL penicillin streptomycin at 37° C. in an atmosphere of 5% CO2 in air. The tumor cells were routinely subcultured twice weekly by trypsin-EDTA treatment. The cells growing to a confluency around 70%-80% were harvested and counted for tumor inoculation. The cultured MC-38 were harvested, re-suspended in base medium at a density of 1×10^7 cells/mL with viability>90%. Each mouse was inoculated subcutaneously at the right flank with 1×10^6 cells in 0.1 ml base medium for tumor development.
The treatments were started on day 6 after tumor inoculation when the tumor size reached 50-100 mm^3 (average tumor size 71 mm^3). Each group consisted of 8 tumor-bearing mice. The testing article was administrated to the mice at a dosing volume of 10 mL/Kg according to the predetermined regimen as shown in Table 3-1.
Tumor sizes were measured three times a week in two dimensions using a caliper, and the volume expressed in mm^3 using the formula: V=0.5 a×b^2 where a and b are the long and short diameters of the tumor, respectively. The tumor sizes were then used for the calculations of both tumor growth inhibition (TGI) and T/C values.
TGI is calculated for each group using the formula: […]
TVTreatment_DayN is the average tumor volume of a treatment group on a given day, TVTreatment_Day0 is the average tumor volume of the treatment group on the first day of treatment, TVVehicle_DayN is the average tumor volume of the vehicle control group on a given day, and TVVehicle_Day0 is the average tumor volume of the vehicle group on the first day of treatment.
The T/C value (in percent) is an indication of antitumor effectiveness, T/C (%)=RTVTreatment/RTVControl×100% (RTVTreatment: the mean RTV of the treatment group; RTVControl: the mean RTV of the vehicle treated group). RTV (relative tumor volume)=TVDayN/TVDay0. TVDayN and TVDay0 is the tumor volume on day N and Day 0 respectively. T/C (%)≤42% is considered as significant antitumor activity and <10% is considered as highly significant antitumor activity by the National Cancer Institute criteria.
Relative change of body weight (RCBW) of each mouse was calculated according to the following formula: […]
Animal survival curve: When an individual animal reached to the termination endpoint (TV>2000 mm^3), the mouse was euthanized. The time from treatment initiation to the termination was deemed as its survival time. Survival curve was plotted by Kaplan-Meier method. Median survival time (MST) was calculated for each group. Increase of life span (ILS) was calculated according to the following formula: […]
ILS (%)>25% is considered as a biologically significant survival benefit. […]

[1] = 0.7 mpk S.C. 5-days ON 2-days OFF
[2] = 1.4 mpk days ON 2-days OFF x 4 cycles
[3] = 1.5 mpk qdx5, followed by 0.5 mpk qdx23
[4] = 3 mpk qdx5, followed by 1 mpk qdx23
[5] = Day 13, 0.7 mpk S.C. 5-days ON 2-days OFF
[6] = Day 13, 1.4 mpk 10-days ON 4-days OFF
[7] = Day 13, 1.4 mpk days ON 2-days OFF x 4 cycles
[8] = Day 13, 1.5 mpk qdx5, followed by 0.5 mpk qdx23
[9] = Day 13, 3 mpk qdx5, followed by 1 mpk qdx23

Which results are given for `CC(=O)N[C@@H](Cc1c[nH]c2ccccc12)C(=O)N[C@@H](CCC(=O)C=[N+]=[N-])C(=O)OC(C)C` [Compound 1, Isopropyl (S)-2-((S)-2-acetamido-3-(1H-indol-3-yl)propanamido)-6-diazo-5-oxohexanoate]?
ILS (0.5 mpk QD*28 days): 126%; RTV at day 13 (0.5 mpk QD*28 days): 0 ± 0; MST (0.5 mpk QD*28 days): 43 days; ILS [1]: 208%; RTV at day 13 [1]: 0 ± 0; MST [1]: 58.5 days; ILS (1 mpk QD*28 days): 126%; RTV at day 13 (1 mpk QD*28 days): 0 ± 0; MST (1 mpk QD*28 days): 43 days; ILS (1.4 mpk 10-days ON 4-days OFF): 121%; RTV at day 13 (1.4 mpk 10-days ON 4-days OFF): 0 ± 0; MST (1.4 mpk 10-days ON 4-days OFF): 42 days; ILS [2]: 153%; RTV at day 13 [2]: 0 ± 0; MST [2]: 48 days; ILS [3]: 121%; RTV at day 13 [3]: 0 ± 0; MST [3]: 42 days; ILS [4]: 134%; RTV at day 13 [4]: 0 ± 0; MST [4]: 44.5 days; Tumor volume (Mean ± SEM) (Day 11, Group 2: 1 mg/kg qdx28, sc): 15 ± 3 mm^3; Tumor volume (Mean ± SEM) (Day 11, Group 3: 0.5 mg/kg qdx28, sc): 29 ± 3 mm^3; Tumor volume (Mean ± SEM) (Day 11, Group 4: 1.4 mg/kg 5-days ON 2-days OFF x 4 cycles, sc): 14 ± 2 mm^3; Tumor volume (Mean ± SEM) (Day 11, Group 5: 0.7 mg/kg 5-days ON 2-days OFF x 4 cycles, sc): 20 ± 4 mm^3; Tumor volume (Mean ± SEM) (Day 11, Group 6: 3 mpk qdx5 followed by 1 mpk qdx23, sc): 24 ± 2 mm^3; Tumor volume (Mean ± SEM) (Day 11, Group 7: 1.5 mpk qdx5 followed by 0.5 mpk qdx23, sc): 21 ± 2 mm^3; Tumor volume (Mean ± SEM) (Day 11, Group 8: 1.4 mg/kg 10-days ON 4-days OFF x 2 cycles, sc): 28 ± 4 mm^3; T/C (Day 13, 0.5 mpk QD*28 days): 0%; TGI (Day 13, 0.5 mpk QD*28 days): 103.48%; T/C [5]: 0%; TGI [5]: 104.42%; T/C (Day 13, 1 mpk QD*28 days): 0%; TGI (Day 13, 1 mpk QD*28 days): 104.87%; T/C [6]: 0%; TGI [6]: 104.10%; T/C [7]: 0%; TGI [7]: 104.49%; T/C [8]: 0%; TGI [8]: 104.24%; T/C [9]: 0%; TGI [9]: 104.29%; Tumor volume (Mean ± SEM) (Day 13, Group 2: 1 mg/kg qdx28, sc, 1 mg/kg): 5 ± 2 mm^3; Tumor volume (Mean ± SEM) (Day 13, Group 3: 0.5 mg/kg qdx28, sc, 0.5 mg/kg): 24 ± 2 mm^3; Tumor volume (Mean ± SEM) (Day 13, Group 4: 1.4 mg/kg 5-days ON 2-days OFF x 4 cycles, sc, 1.4 mg/kg): 11 ± 3 mm^3; Tumor volume (Mean ± SEM) (Day 13, Group 5: 0.7 mg/kg 5-days ON 2-days OFF x 4 cycles, sc, 0.7 mg/kg): 13 ± 4 mm^3; Tumor volume (Mean ± SEM) (Day 13, Group 6: 3 mpk qdx5 followed by 1 mpk qdx23, sc): 14 ± 3 mm^3; Tumor volume (Mean ± SEM) (Day 13, Group 7: 1.5 mpk qdx5 followed by 0.5 mpk qdx23, sc): 15 ± 3 mm^3; Tumor volume (Mean ± SEM) (Day 13, Group 8: 1.4 mg/kg 10-days ON 4-days OFF x 2 cycles, sc, 1.4 mg/kg): 17 ± 4 mm^3; Tumor volume (Mean ± SEM) (Day 15, Group 2: 1 mg/kg qdx28, sc): 1 ± 1 mm^3; Tumor volume (Mean ± SEM) (Day 15, Group 3: 0.5 mg/kg qdx28, sc): 17 ± 3 mm^3; Tumor volume (Mean ± SEM) (Day 15, Group 4: 1.4 mg/kg 5-days ON 2-days OFF x 4 cycles, sc): 2 ± 1 mm^3; Tumor volume (Mean ± SEM) (Day 15, Group 5: 0.7 mg/kg 5-days ON 2-days OFF x 4 cycles, sc): 6 ± 3 mm^3; Tumor volume (Mean ± SEM) (Day 15, Group 6: 3 mpk qdx5 followed by 1 mpk qdx23, sc): 6 ± 2 mm^3; Tumor volume (Mean ± SEM) (Day 15, Group 7: 1.5 mpk qdx5 followed by 0.5 mpk qdx23, sc): 9 ± 2 mm^3; Tumor volume (Mean ± SEM) (Day 15, Group 8: 1.4 mg/kg 10-days ON 4-days OFF x 2 cycles, sc): 14 ± 3 mm^3; Tumor volume (Mean ± SEM) (Day 18, Group 2: 1 mg/kg qdx28, sc): 1 ± 0 mm^3; Tumor volume (Mean ± SEM) (Day 18, Group 3: 0.5 mg/kg qdx28, sc): 10 ± 2 mm^3; Tumor volume (Mean ± SEM) (Day 18, Group 4: 1.4 mg/kg 5-days ON 2-days OFF x 4 cycles, sc): 0 ± 0 mm^3; Tumor volume (Mean ± SEM) (Day 18, Group 5: 0.7 mg/kg 5-days ON 2-days OFF x 4 cycles, sc): 3 ± 1 mm^3; Tumor volume (Mean ± SEM) (Day 18, Group 6: 3 mpk qdx5 followed by 1 mpk qdx23, sc): 7 ± 3 mm^3; Tumor volume (Mean ± SEM) (Day 18, Group 7: 1.5 mpk qdx5 followed by 0.5 mpk qdx23, sc): 8 ± 2 mm^3; Tumor volume (Mean ± SEM) (Day 18, Group 8: 1.4 mg/kg 10-days ON 4-days OFF x 2 cycles, sc): 8 ± 3 mm^3; Tumor volume (Mean ± SEM) (Day 20, Group 2: 1 mg/kg qdx28, sc): 1 ± 0 mm^3
